In article PMC12040169 (PLOS Biology, 2025):

Test: in vitro
Details: human, hela cells
[1] = % viability, bulk resorufin, single well

| Structure (SMILES) | viability at 28.5 h, 10 µM (% viability) | other results |
| --- | --- | --- |
| CC1CN(C(=O)Oc2ccccc2)C(C)CN1CCCC(c1ccc(F)cc1)c1ccc(F)cc1 (centres unmarked) [CBK024993C] |  | viability at 28.5 h, 10 µM: 87.4% |
| CCNC(=O)N1CCN(CCCCN2C(=O)CC3(CCCC3)CC2=O)CC1 [CBK024999C] | 102% |  |
| CCNC(=O)N1CCN(CCCC(O)c2ccc(F)cc2)CC1 (centres unmarked) [CBK025001C] | 118% |  |
| CCNC(=O)N1CC(C)N(CCCCc2ccc(F)cc2)C(C)C1 (centres unmarked) [CBK025027C] | 89.9% |  |
| O=C(CCCN1CCN(C(=O)NC2CCC(O)CC2)CC1)c1ccc(F)cc1 (centres unmarked) [CBK025156C] | 97% |  |
| Cc1cccc(N2CCN(CCCOc3ccc(F)c(F)c3)CC2)n1 [CBK025158C] | 106% |  |
| COc1cc(C(C)=O)ccc1OCCCN1CCC(O)(C(=O)c2ccc(F)cc2)CC1 [CBK025271C] | 85.8% |  |
| O=C(CCCN1CCN(CCCC(=O)c2ccc(F)cc2)CC1)c1ccc(F)cc1 [CBK025317C] | 89.1% |  |
| CC(C)OC(=O)c1cccnc1N1CCN(CCCC(c2ccc(F)cc2)c2ccc(F)cc2)CC1 [CBK025340C] | 103% |  |
| NC(=O)c1cccnc1N1CCN(CCCN(c2ccc(F)cc2)c2ccc(F)cc2)CC1 [CBK025341C] | 110% |  |
| CN(C)Cc1ccc(-c2cc3occ(-c4ccccc4)c3c(=O)n2C)cc1 [CBK025372] | 103% |  |
| CCC1(O)C(C)C(c2ccc(Cl)cc2)NC(c2ccc(Cl)cc2)C1C (centres unmarked) [CBK025376C] | 124% |  |
| Cc1ccccc1Cn1c(=O)sc2ccccc21 [CBK025408] | 94.9% |  |
| CSc1ccc(SC/C(N)=N/O)cc1 [CBK025411C] | 96.1% |  |
| C(=N\Nc1nc2ccccc2[nH]1)/c1cccs1 [CBK025417] | 87.6% |  |
| CCOc1ccc2c(c1)N1C(=O)NC(C(F)(F)F)(C(F)(F)F)N=C1S2 [CBK025440] | 85.4% |  |
| CC1(C)CC(=O)Nc2ccccc2S1 [CBK025483] | 98.2% |  |
| O=C1Nc2ccccc2SC1(O)C(F)(F)F (centres unmarked) [CBK025554] | 114% |  |
| O=S1(=O)C=C(N2CCCCCC2)CC1 [CBK025571C] | 85.7% |  |
| CCOC(=O)COc1ccc2nsnc2c1Cl [CBK025603] | 91.4% |  |
| O=c1[nH]c(NCCCO)nc2sc3c(c12)CCCC3 [CBK025611] | 87.9% |  |
| NC1=NN2C(=C(c3ccc(O)c(C(=O)O)c3)NN2c2ccccc2)N1 [CBK025631] | 95.2% |  |
| Cn1c(=O)n(CC#N)c2ccccc21 [CBK025636] | 96.9% |  |
| COc1ccc(-c2cc3nnc(C)nc3s2)cc1 [CBK025638] | 107% |  |

| Structure (SMILES) | viability at 28.5 h, 10 µM (% viability) | other results |
| --- | --- | --- |
| Nn1cnn2c(SCC(=O)Nc3ccc(Cl)cc3)nnc12 [CBK025688] | 99% |  |
| Nc1nonc1C(=O)NCc1cccnc1 [CBK025695] | 95.9% |  |
| Cc1ccc(OC(C)c2nc(-c3nonc3N)no2)cc1C (centres unmarked) [CBK025698] | 92.4% |  |
| Cc1cc(Cl)cc(Cl)c1OCCCc1c(C)n[nH]c1C [CBK025733C] | 76.9% |  |
| Cc1n[nH]c(C)c1CCCCCOc1ccccc1F [CBK025736C] | 88.9% |  |
| COc1cc(/C=N/Nc2nonc2N)cc(OC)c1OC [CBK025758] | 73.2% |  |
| COc1c(I)cc(Br)cc1/C=N/NC(=O)CC#N [CBK025764] | 91.8% |  |
| Cc1cc(C)n2nc(S(N)(=O)=O)c(C#N)c2n1 [CBK025767] | 90.7% |  |
| COc1cc(CN2CCN(c3ccccn3)CC2)cc(Br)c1O [CBK025770] | 91.9% |  |
| COc1ccc(CNC2CCCc3ccccc32)c(OC)c1C (centres unmarked) [CBK025778G] | 77.6% |  |
| CSc1nc(N)c2nccnc2n1 [CBK025779] | 104% |  |
| O=C(NC(Sc1ncccn1)C(=O)c1ccccc1)c1ccccc1 (centres unmarked) [CBK025806] | 95.5% |  |
| CCc1nnc(NC(=O)CSc2nc3c([nH]2)c(=O)n(C)c(=O)n3C)s1 [CBK025840] | 113% |  |
| C[S+]([O-])CC(O)(c1ccc(F)cc1)C1CC1 (centres unmarked) [CBK025846] | 114% |  |
| COc1ccc(N(CCC#N)S(=O)(=O)c2cccc3nsnc23)cc1 [CBK025851] | 90.7% |  |
| COc1ccc2[nH]c3c(=O)n(C)cnc3c2c1 [CBK025870] | 85.8% |  |
| O=C(c1cccnc1N1CCCCC1)N1CCCCC1 [CBK025882] | 109% |  |
| CC1(C)SC(c2ccc(F)cc2)N[C@H]1C(=O)O (some centres unmarked) [CBK025917] | 91.4% |  |
| Nc1nc(N)c2cc(C(F)(F)F)ccc2n1 [CBK025934] | 66.4% |  |
| Nc1nc(N)c2cccc(F)c2n1 [CBK025945] | 91.4% |  |
| COc1ccc2c(-n3cncn3)ccnc2c1 [CBK025957] | 90.2% |  |
| Cc1cc(C)c2nc(-n3cncn3)c(C)cc2c1 [CBK025958] | 88.9% |  |
| Clc1ccc(CNC2CCCCC2NCc2ccc(Cl)nc2)cn1 (centres unmarked) [CBK025983] | 82.7% |  |
| Cc1cn(-c2ccc(OC(=O)NC(C)(C)C)c(Cl)c2)c(=O)n1C [CBK025991] |  | viability at 28.5 h, 10 µM [1]: 106% |

| Structure (SMILES) | viability at 28.5 h, 10 µM (% viability) | other results |
| --- | --- | --- |
| CCCn1nnn(-c2cc(OCCOCC)c(Cl)cc2Cl)c1=O [CBK026016] | 99% |  |
| O=C(O)COc1ccc(Br)cn1 [CBK026021] | 104% |  |
| CC1NCCc2c1sc1ccccc21 (centres unmarked) [CBK026032C] | 100% |  |
| COC(=O)c1sc(NC(=O)C2CC2)c(C#N)c1C [CBK026049] | 107% |  |
| O=C(C1CCC1)N1CCN(c2ccccn2)CC1 [CBK026058] | 107% |  |
| O=C(Nc1nnc[nH]1)c1cccnc1Cl [CBK026067] | 113% |  |
| COC(=O)Cn1c(=O)sc2cccc(Cl)c21 [CBK026076] | 93.9% |  |
| OC(COc1ccccc1)Cn1ncnn1 (centres unmarked) [CBK026083] | 89.6% |  |
| CNCCc1csc2ccc(C)cc12 [CBK026097] |  | viability at 28.5 h, 10 µM [1]: 91.6% |
| COc1ccc(CCCC(=O)NC2CCCCC2C)cc1 (centres unmarked) [CBK026124] | 94.3% |  |
| CCCSc1nnc(-c2c(Cl)c(CC)nn2C)s1 [CBK026135] | 104% |  |
| Cc1nn(C)c2c1c(=O)n(C)c(=O)n2C [CBK026140] | 89.2% |  |
| Cc1n[nH]c(O)c1C(c1ccc(Br)o1)c1c(C)n[nH]c1O [CBK026150] | 102% |  |
| CCc1nnc(N/N=C/c2cccs2)n1N [CBK026233C] | 97.9% |  |
| CCOc1ccccc1OCC(C)CNC (centres unmarked) [CBK026242G] | 120% |  |
| CC(C)c1ccc2c(c1)C(N1CCN(C)CC1)Cc1cccnc1S2 (centres unmarked) [CBK026244G] | 98.7% |  |
| CCc1cccc2c1Sc1ccccc1CC2N1CCN(C)CC1 (centres unmarked) [CBK026248G] | 103% |  |
| Cc1ccc(SCCNS(C)(=O)=O)cc1 [CBK026280] | 90.8% |  |
| C/C(CS(=O)(=O)c1ccccc1)=N/NC(N)=S [CBK026285] | 111% |  |
| Cc1nnc(SCC(=O)c2ccccc2)[nH]1 [CBK026287] | 99.5% |  |
| CCCC1(OC(=O)Nc2ccc(Cl)cc2)CCCCC1 [CBK026295] | 91.4% |  |
| Brc1csc(CN2CCN3CCCC3C2C2CCCCC2)c1 (centres unmarked) [CBK026298] | 103% |  |
| CCOC(=O)C1=NN(C(=O)c2ccc(Cl)cc2)C(O)(C(C)(C)C)C1 (centres unmarked) [CBK026308] | 86% |  |
